Measured values published in patent US12392776B2, “Methods and kits for detecting exosomal protein” (City University of Hong Kong, priority 2020, dated 2025).

Columns and labels:
Type in all cases: cell-based, human
[1] = test system: U251 cells; experiment: NTA exosome release assay
Procedure: To investigate the correlation between the malignant transition of hypoxic GMs and their production and release of exosomes, the secretion assay of exosomes was conducted via using nanoparticle tracking analysis (NTA). U251 cells were tested under normoxic or hypoxic condition.
Briefly, a represents Exo-FBS medium, b represents Sodium-L-lactate (20 mM), c represents BAPTA-AM, d represents BAPTA-AM with the pretreatment of Sodium-L-lactate (20 mM). All chemicals were dissolved in the Exo-FBS medium containing 1% DMSO. All data were shown as the mean±SEM. Significance level: **P<0.01, *P<0.05, hypoxia vs. normoxia, No-treatment vs. BAPTA-AM, MCT1 KD virus vs. Empty backbone virus (control 1), CD147 antisense vs. antisense control (control 2).

[2] = test system: GMs; experiment: Intracellular Ca2+ level (Fluo-4 AM Ca2+ assay / Fura Red imaging); conditions: FIG. 23B
Procedure: To further investigate whether the change of intracellular Ca^2+ concentrations could be associated with hypoxia-driven enhanced exosome release, […], AM Ca^2+ imaging and Fluo-4 AM Ca^2+ assay were conducted with normoxic- and hypoxic-U251 cells.
To recapitulate the hypoxia-induced acidic TME, sodium-L-lactates (20 mM) were applied to the culture medium of GMs.

[3] = test system: HIF-1α

With `C[C@H](O)C(=O)[O-].[Na+]` [sodium-L-lactate] the exosome release ([1]; GMs exposed to sodium-L-lactate 20 mM for 10 min, FIG. 23C) was “promote exosome release” and the “intracellular Ca2+ level” value ([2]; GMs, sodium-L-lactate 20 mM, 100 μl added to 2 ml medium) was “enhanced intracellular Ca^2+ level”.
With `[Cl-].[Cl-].[Co+2]` [CoCl2] the “HIF-1α expression and nuclear localization” value [3] was “increased HIF-1α expression and enhanced nuclear localization of HIF-1α”.
In the case of `CC(=O)OCOC(=O)CN(CC(=O)OCOC(C)=O)c1ccccc1OCCOc1ccccc1N(CC(=O)OCOC(C)=O)CC(=O)OCOC(C)=O` [BAPTA-AM], the exosome release ([1]; GMs with induction of MCT1 OE and CD147 OE, BAPTA-AM 20 μM, 100 μl added to 2.1 ml medium, FIG. 23A) is reported as “marked decline in exosome release”, the exosome release ([1]; GMs, lactate-stimulated release, BAPTA-AM with pretreatment of sodium-L-lactate 20 mM, 10 min, FIG. 23C) is reported as “blocked” and the exosome release ([1]; hypoxia-enhanced release from U251 cells, intracellular Ca2+ chelated with BAPTA-AM (20 μM)) is reported as “blocked the enhanced release of exosomes”. For the same compound, the “intracellular Ca2+ level” value ([2]; GMs after sodium-L-lactate, BAPTA-AM 20 μM, 100 μl added to 2.1 ml medium) was “distinctive decline in intracellular Ca^2+ level”.
